Assay results published in patent publication US20230329236A1, “HERBICIDAL PYRIMIDINE DERIVATIVES” (MoA Technology Limited, priority 2020, published 2023).

Key:
[1] = system: Lolium multiflorum (LOLMU); assay: Post-emergence glasshouse test, visual injury, LOLMU; format: in vivo; details: 336 h, Table 3, post-emergence, 14±1 days post application
In short: (§1)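 In this glasshouse test, sandy-loam-grown plants at BBCH 12-14 received a foliar spray of compound in 0.5% Tween 20 acetone/water (50:50) at rates expressed in g/ha. Injury was rated visually against untreated plots two weeks (14±1 d) later.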

[2] = system: Echinochloa crus-gaffi (ECHCG); assay: Post-emergence glasshouse test, visual injury, ECHCG; format: in vivo, Echinochloa crus-galli; details: 336 h, Table 3, post-emergence, 14±1 days post application
In short: as §1

[3] = system: Veronica persica (VERPE); assay: Post-emergence glasshouse test, visual injury, VERPE; format: in vivo; details: 336 h, 14±1 days post application
In short: as §1

[4] = system: Amaranthus retroflexus (AMARE); assay: Post-emergence glasshouse test, visual injury, AMARE; format: in vivo; details: 336 h, 14±1 days post application
In short: as §1

[5] = system: Glycine max (GLXMA); assay: Post-emergence glasshouse test, visual injury, GLXMA; format: in vivo; details: Table 4, post-emergence, 14±1 days post application
Method: (§2) Seeds of a variety of test species are grown in a sandy loam soil mixture, Lolium multiflorum (LOLMU), Amaranthus retroflexus (AMARE), Echinochloa crus-gaffi (ECHCG), Veronica persica (VERPE), Glycine max (GLXMA), Oryza sativa (ORYSA), Zea mays (ZEAMX), spring wheat (TRZAS), Ipomoea hederacea (IPOHE), Ipomoea purpurea (PHBPU), Stellaria media (STEME), Solanum nigrum (SOLNI), Digitaria sanguinalis (DIGSA), Setaria italica (SETIT), Alopecurus myosuroides (ALOMY) and Avena fatua (AVEFA).
(§3) After sowing, at growth stage BBCH 12-14 (post-emergence), the plants are sprayed with an aqueous spray solution derived from the formulation of the technical active ingredient in acetone/water (50:50) solution containing 0.5% Tween 20 (polyoxyethlyene sorbitan monolaureate, CAS RN 9005-64-5). The test compounds are applied at the required concentration of active ingredient in g/ha. The test plants are then grown in a glasshouse under controlled environmental conditions and watered regularly as required. After 14±1 days post application (for post-emergence test), the test is evaluated by assessing the percentage damage caused to the plants in comparison with the untreated plots. The biological activities for post-emergence testing are shown below (Table 3 and Table 4) as a % visual injury.

[6] = system: Oryza sativa (ORYSA); assay: Post-emergence glasshouse test, visual injury, ORYSA; format: in vivo; details: Table 4, post-emergence, 14±1 days post application
Method: as §2, §3

[7] = system: Zea mays (ZEAMX); assay: Post-emergence glasshouse test, visual injury, ZEAMX; format: in vivo; details: Table 4, post-emergence, 14±1 days post application
Method: as §2, §3

[8] = system: spring wheat (TRZAS); assay: Post-emergence glasshouse test, visual injury, TRZAS; format: in vivo; details: Table 4, post-emergence, 14±1 days post application
Method: as §2, §3

[9] = system: Ipomoea hederacea (IPOHE); assay: Post-emergence glasshouse test, visual injury, IPOHE; format: in vivo; details: Table 4, post-emergence, 14±1 days post application
Method: as §2, §3

[10] = system: Stellaria media (STEME); assay: Post-emergence glasshouse test, visual injury, STEME; format: in vivo; details: Table 4, post-emergence, 14±1 days post application
Method: as §2, §3

[11] = Table 4, post-emergence, 1000 g/ha

Cc1cc(-c2cnc(NCc3ccncc3)nc2C2CC2)on1 [Compound 20] was tested, and the pest or weed control at 500 g/ha [1] was 0%, the pest or weed control at 500 g/ha [2] was 0% and the pest or weed control at 500 g/ha ([3]; Table 3, post-emergence) was 30%. For the same molecule, the pest or weed control at 125 g/ha ([3]; Table 4, post-emergence) was 50%, the pest or weed control at 250 g/ha ([3]; Table 4, post-emergence) was 60% and the pest or weed control at 500 g/ha ([3]; Table 4, post-emergence) was 70%. The pest or weed control at 1000 g/ha [3, 11] was 90%, the pest or weed control at 500 g/ha ([4]; Table 3, post-emergence) was 80% and the pest or weed control at 125 g/ha ([4]; Table 4, post-emergence) was 0%. For the same molecule, the pest or weed control at 250 g/ha ([4]; Table 4, post-emergence) was 0%, the pest or weed control at 500 g/ha ([4]; Table 4, post-emergence) was 50% and the pest or weed control at 1000 g/ha [4, 11] was 90%. For the same molecule, the “GLXMA % visual injury” value ([5]; 125 g/ha) was 30%, the “GLXMA % visual injury” value ([5]; 250 g/ha) was 20% and the “GLXMA % visual injury” value ([5]; 500 g/ha) was 40%. For the same molecule, the “GLXMA % visual injury” value ([5]; 1000 g/ha) was 50%, the “ORYSA % visual injury” value ([6]; 125 g/ha) was 50% and the “ORYSA % visual injury” value ([6]; 250 g/ha) was 60%. The “ORYSA % visual injury” value ([6]; 500 g/ha) was 30%, the “ORYSA % visual injury” value ([6]; 1000 g/ha) was 60% and the “ZEAMX % visual injury” value ([7]; 125 g/ha) was 20%. The “ZEAMX % visual injury” value ([7]; 250 g/ha) was 50%, the “ZEAMX % visual injury” value ([7]; 500 g/ha) was 50% and the “ZEAMX % visual injury” value ([7]; 1000 g/ha) was 40%. The “TRZAS % visual injury” value ([8]; 125 g/ha) was 0%, the “TRZAS % visual injury” value ([8]; 250 g/ha) was 0% and the “TRZAS % visual injury” value ([8]; 500 g/ha) was 30%. For the same molecule, the “TRZAS % visual injury” value ([8]; 1000 g/ha) was 20%, the “IPOHE % visual injury” value ([9]; 125 g/ha) was 0% and the “IPOHE % visual injury” value ([9]; 250 g/ha) was 0%. The “IPOHE % visual injury” value ([9]; 500 g/ha) was 0%, the “IPOHE % visual injury” value ([9]; 1000 g/ha) was 30% and the “STEME % visual injury” value ([10]; 125 g/ha) was 0%. The “STEME % visual injury” value ([10]; 250 g/ha) was 30%, the “STEME % visual injury” value ([10]; 500 g/ha) was 40% and the “STEME % visual injury” value ([10]; 1000 g/ha) was 95%.

CCN(CC)c1ncc(-c2cc(C)no2)c(C(C)C)n1 [Compound 10] gave a pest or weed control at 250 g/ha [1] of 0%, a pest or weed control at 250 g/ha [2] of 30% and a pest or weed control at 250 g/ha ([3]; Table 3, post-emergence) of 0%. The pest or weed control at 250 g/ha ([4]; Table 3, post-emergence) was 0%.

In the case of Cc1cc(-c2cnc(NCc3ccccc3F)nc2C(C)C)on1 [Compound 55], the pest or weed control at 500 g/ha [1] is reported as 40%, the pest or weed control at 500 g/ha [2] is reported as 70% and the pest or weed control at 500 g/ha ([3]; Table 3, post-emergence) is reported as 99%. The pest or weed control at 500 g/ha ([4]; Table 3, post-emergence) was 100%.

Cc1cc(-c2cnc(N3CCC(O)C(C)C3)nc2-c2ccc(C)o2)on1 (stereo not shown) [Compound 36] showed a pest or weed control at 500 g/ha [1] of 0%, a pest or weed control at 500 g/ha [2] of 30% and a pest or weed control at 500 g/ha ([3]; Table 3, post-emergence) of 0%. The pest or weed control at 500 g/ha ([4]; Table 3, post-emergence) was 30%.

In the case of CC(=O)N1CCN(c2ncc(-c3cc(C)no3)c(C3CC3)n2)CC1 [Compound 50], the pest or weed control at 500 g/ha [1] is reported as 0%, the pest or weed control at 500 g/ha [2] is reported as 50% and the pest or weed control at 500 g/ha ([3]; Table 3, post-emergence) is reported as 0%. The pest or weed control at 500 g/ha ([4]; Table 3, post-emergence) was 60%.

In the case of Cc1cc(-c2cnc(NCc3cccc(F)c3)nc2C(F)(F)F)on1 [Compound 126], the pest or weed control at 125 g/ha [1] is reported as 0%, the pest or weed control at 125 g/ha [2] is reported as 70% and the pest or weed control at 125 g/ha ([3]; Table 3, post-emergence) is reported as 100%. For the same molecule, the pest or weed control at 125 g/ha ([4]; Table 3, post-emergence) was 95%.

Cc1cc(-c2cnc(N3CCCC3)nc2C(C)C)on1 [Compound 29] gave a pest or weed control at 500 g/ha [1] of 0%, a pest or weed control at 500 g/ha [2] of 50% and a pest or weed control at 500 g/ha ([3]; Table 3, post-emergence) of 50%. For the same molecule, the pest or weed control at 500 g/ha ([4]; Table 3, post-emergence) was 0%.

For Cc1cc(-c2cnc(N(C)C3CCCC3)nc2C(C)C)on1 [Compound 9], the pest or weed control at 125 g/ha [1] was 60%, the pest or weed control at 125 g/ha [2] was 60% and the pest or weed control at 125 g/ha ([3]; Table 3, post-emergence) was 80%. It also gave a pest or weed control at 125 g/ha ([4]; Table 3, post-emergence) of 95%.

Cc1cc(-c2cnc(NCC3COCCO3)nc2C2CC2)on1 (stereo not shown) [Compound 74] was tested, and the pest or weed control at 500 g/ha [1] was 70%, the pest or weed control at 500 g/ha [2] was 80% and the pest or weed control at 500 g/ha ([3]; Table 3, post-emergence) was 90%. It also gave a pest or weed control at 500 g/ha ([4]; Table 3, post-emergence) of 100%.

For Cc1cc(-c2cnc(NCc3ccc(F)cc3)nc2C(F)F)on1 [Compound 120], the pest or weed control at 125 g/ha [1] was 0%, the pest or weed control at 125 g/ha [2] was 20% and the pest or weed control at 125 g/ha ([3]; Table 3, post-emergence) was 40%. It also gave a pest or weed control at 125 g/ha ([4]; Table 3, post-emergence) of 30%.

Cc1cc(-c2cnc(NCc3ccncc3F)nc2C(C)C)on1 [Compound 95] was tested, and the pest or weed control at 62 g/ha [1] was 30%, the pest or weed control at 62 g/ha [2] was 60% and the pest or weed control at 62 g/ha ([3]; Table 3, post-emergence) was 60%. The pest or weed control at 62 g/ha ([4]; Table 3, post-emergence) was 30%.

In the case of Cc1cc(-c2cnc(NC3CCCC3)nc2C2CC2)on1 [Compound 13, N-cyclopentyl-4-cyclopropyl-5-(3-methyl-1,2-oxazol-5-yl)pyrimidin-2-amine], the pest or weed control at 125 g/ha [1] is reported as 40%, the pest or weed control at 250 g/ha [1] is reported as 80% and the pest or weed control at 125 g/ha [2] is reported as 80%. It also gave a pest or weed control at 250 g/ha [2] of 100%, a pest or weed control at 125 g/ha ([3]; Table 3, post-emergence) of 70% and a pest or weed control at 250 g/ha ([3]; Table 3, post-emergence) of 100%. For the same molecule, the pest or weed control at 125 g/ha ([4]; Table 3, post-emergence) was 80% and the pest or weed control at 250 g/ha ([4]; Table 3, post-emergence) was 100%.

Molecule CC(C)c1nc(NC2CCCC2)ncc1-c1cncs1 [Compound 124] has a pest or weed control at 62 g/ha [1] of 0%, a pest or weed control at 62 g/ha [2] of 0% and a pest or weed control at 62 g/ha ([3]; Table 3, post-emergence) of 0%. The pest or weed control at 62 g/ha ([4]; Table 3, post-emergence) was 10%.
